In US8338336B2, “Synergistic herbicidal composition containing penoxsulam and oxyfluorfen” (Dow AgroSciences, LLC, priority 2010, dated 2012):

Tests used:
Format in all cases: in vivo
[1] = system: HEOEU = common heliotrope (Heliotropium europaeum); experiment: Field trial, autumn post-emergence application, residual weed control (Table 3); settings: rated 56 Days After Application
Experimental: (§1) Evaluation of Pre-Emergence and Post-Emergence Herbicidal Activity of Mixtures in the Field
(§2) Field trials were conducted in perennial tree and vine crops using standard herbicide small plot research methodology. Plots varied from 3×3 meter (m) to 3×10 m (width×length) with 3 to 4 replicates per treatment. The perennial tree and vine crops were grown using normal cultural practices for the respective areas for the trials, using normal planting, fertilization, watering, flooding and maintenance for pests to ensure good growth of the crop and the weeds.
(§3) All treatments in the field trials were applied using a carbon dioxide (CO2) backpack sprayer calibrated to apply 187 liters per hectare (L/ha) spray volume. Commercially available products of penoxsulam and oxyfluorfen were mixed in water at appropriate formulated product rates to achieve the desired rates shown based on a unit area of application (hectare). Treatments were rated at different intervals from treatment to evaluation, from 7 to 175 days after application as compared to the untreated control plants. Due to the long term residual weed control needed to determine the synergistic effect, all single entity products and their tank mixes were mixed with glyphosate to ensure complete weed burndown to be able to measure residual weed control and not just burndown of weeds. Visual weed control was scored on a scale of 0 to 100 percent where 0 corresponds to no injury and 100 corresponds to complete kill.
(§4) Colby's equation was used to determine the herbicidal effects expected from the mixtures (Colby, S. R. Calculation of the synergistic and antagonistic response of herbicide combinations. Weeds 1967, 15, 20-22).
(§5) The following equation was used to calculate the expected activity of mixtures containing two active ingredients, A and B: Expected=A+B−(A×B/100)
(§6) A=observed efficacy of active ingredient A at the same concentration as used in the mixture.
(§7) B=observed efficacy of active ingredient B at the same concentration as used in the mixture.

[2] = system: CHEAL = common lambsquarter (Chenopodium album); experiment: as above; settings: rated 56 Days After Application
Experimental: as §1, §2, §3, §4, §5, §6, §7

[3] = system: POROL = purslane (Portulaca oleracea); experiment: as above; settings: rated 56 Days After Application
Experimental: as §1, §2, §3, §4, §5, §6, §7

[4] = system: ERICA = marestail (Conyza canadensis); experiment: Field trial, autumn pre-emergence application, residual weed control (Table 2); settings: Spain, rated 97 to 175 Days After Application; for % Control ERICA (2) Ob (observed visual weed control): Moron de la frontera; for % Control ERICA (1) Ob (observed visual weed control): Utrera
Experimental: as §1, §2, §3, §4, §5, §6, §7

[5] = system: SHRAR = field madder (Sherardia arvensis); experiment: as above; settings: rated 97 to 175 Days After Application
Experimental: as §1, §2, §3, §4, §5, §6, §7

[6] = system: SOLNI = black nightshade (Solanum nigrum); experiment: Field trial, autumn post-emergence application, post-emergence burndown activity (Table 4); settings: Seville; for % Control SOLNI(2) Ob (observed visual weed control): Spain - 7 Days After Application; for % Control SOLNI(1) Ob (observed visual weed control): Spain - 20 Days After Application
Experimental: as §1, §2, §3, §4, §5, §6, §7

[7] = system: MALNE = mallow/malva (Malva neglecta); experiment: Field trial, winter pre-emergence application, residual weed control (Table 1); settings: rated 50 to 132 Days After Application
Experimental: as §1, §2, §3, §4, §5, §6, §7

[8] = system: ERICA = marestail (Conyza canadensis); experiment: as above; settings: rated 50 to 132 Days After Application
Experimental: as §1, §2, §3, §4, §5, §6, §7

[9] = system: ERIBO = fleabane (Conyza bonariensis); experiment: as above; settings: rated 50 to 132 Days After Application
Experimental: as §1, §2, §3, §4, §5, §6, §7

CCOc1cc(Oc2ccc(C(F)(F)F)cc2Cl)ccc1[N+](=O)[O-] [Oxyfluorfen]
% Control HEOEU Ob (observed visual weed control) ([1]; oxyfluorfen 150 g/ha alone): 0%
% Control CHEAL Ob (observed visual weed control) ([2]; oxyfluorfen 150 g/ha alone): 0%
% Control POROL Ob (observed visual weed control) ([3]; oxyfluorfen 150 g/ha alone): 0%
% Control ERICA (2) Ob (observed visual weed control) ([4]; oxyfluorfen 150 g/ha alone): 79%
% Control ERICA (1) Ob (observed visual weed control) ([4]; oxyfluorfen 150 g/ha alone): 38%
% Control SHRAR Ob (observed visual weed control) ([5]; oxyfluorfen 150 g/ha alone): 63%
% Control SOLNI(2) Ob (observed visual weed control) ([6]; oxyfluorfen 150 g/ha alone): 45%
% Control SOLNI(1) Ob (observed visual weed control) ([6]; oxyfluorfen 150 g/ha alone): 35%
% Control MALNE Ob (observed visual weed control) ([7]; oxyfluorfen 1680 g/ha alone): 30%
% Control ERICA Ob (observed visual weed control) ([8]; oxyfluorfen 1680 g/ha alone): 5%
% Control ERIBO Ob (observed visual weed control) ([9]; oxyfluorfen 1120 g/ha alone): 0%

COc1cnc(OC)n2nc(NS(=O)(=O)c3c(OCC(F)F)cccc3C(F)(F)F)nc12 [Penoxsulam, 2-(2,2-difluoroethoxy)-N-(5,8-dimethoxy-[1,2,4]triazolo[1,5-c]pyrimidin-2-yl)-6-(trifluoromethyl)benzenesulfonamide]
% Control HEOEU Ob (observed visual weed control) ([1]; penoxsulam 20 g/ha alone): 0%
% Control CHEAL Ob (observed visual weed control) ([2]; penoxsulam 20 g/ha alone): 0%
% Control POROL Ob (observed visual weed control) ([3]; penoxsulam 20 g/ha alone): 0%
% Control ERICA (2) Ob (observed visual weed control) ([4]; penoxsulam 20 g/ha alone): 6%
% Control ERICA (1) Ob (observed visual weed control) ([4]; penoxsulam 20 g/ha alone): 23%
% Control SHRAR Ob (observed visual weed control) ([5]; penoxsulam 20 g/ha alone): 0%
% Control SOLNI(2) Ob (observed visual weed control) ([6]; penoxsulam 20 g/ha alone): 10%
% Control SOLNI(1) Ob (observed visual weed control) ([6]; penoxsulam 20 g/ha alone): 10%
% Control MALNE Ob (observed visual weed control) ([7]; penoxsulam 17.5 g/ha alone): 37%
% Control MALNE Ob (observed visual weed control) ([7]; penoxsulam 35 g/ha alone): 50%
% Control ERICA Ob (observed visual weed control) ([8]; penoxsulam 8.8 g/ha alone): 75%
% Control ERIBO Ob (observed visual weed control) ([9]; penoxsulam 8.8 g/ha alone): 65%
